Measured values published in the supplement of paper PMC10307832.

Columns and labels:
Experiment in all cases: relative viability (nuclei count vs DMSO), 5 days (fraction); higher = more cells survive
AZD8055 + Vorinostat = compound: COc1ccc(-c2ccc3c(N4CCOC[C@@H]4C)nc(N4CCOC[C@@H]4C)nc3n2)cc1CO [AZD8055] + O=C(CCCCCCC(=O)Nc1ccccc1)NO [Vorinostat] (partner 1 µM)
Method in brief: (§1)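 Cells from lung cancer lines were seeded into 1536-well plates and, one day later, dosed by pin tool. Treatments were either a single drug or a fixed dose of an anchor drug with five library-drug doses (not always all listed) in √10 steps. After 5 days, nuclei were stained in a one-step fixation (final 0.05% Triton X-100, 1% formaldehyde, 1 ug/ml Hoechst) and counted on 4× images, and relative viability is the treated-to-vehicle nuclei ratio, as the median of duplicate plates.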

AZD8055 + Pemetrexed = compound: COc1ccc(-c2ccc3c(N4CCOC[C@@H]4C)nc(N4CCOC[C@@H]4C)nc3n2)cc1CO [AZD8055] + Nc1nc2[nH]cc(CCc3ccc(C(=O)N[C@@H](CCC(=O)O)C(=O)O)cc3)c2c(=O)[nH]1 [Pemetrexed] (partner 0.2 µM)
Method in brief: as §1

AZD8055 + Dasatinib = compound: COc1ccc(-c2ccc3c(N4CCOC[C@@H]4C)nc(N4CCOC[C@@H]4C)nc3n2)cc1CO [AZD8055] + Cc1nc(Nc2ncc(C(=O)Nc3c(C)cccc3Cl)s2)cc(N2CCN(CCO)CC2)n1 [Dasatinib] (partner 0.075 µM)
Method in brief: as §1

AZD8055 + Palbociclib = compound: COc1ccc(-c2ccc3c(N4CCOC[C@@H]4C)nc(N4CCOC[C@@H]4C)nc3n2)cc1CO [AZD8055] + CC(=O)c1c(C)c2cnc(Nc3ccc(N4CCNCC4)cn3)nc2n(C2CCCC2)c1=O [Palbociclib] (partner 0.5 µM)
Method in brief: as §1

Row | Cell Line | relative viability (AZD8055 + Vorinostat; first compound 0.01 µM) | relative viability (AZD8055 + Vorinostat; first compound 0.03162 µM) | relative viability (AZD8055 + Vorinostat; first compound 0.1 µM) | relative viability (AZD8055 + Vorinostat; first compound 0.3162 µM) | relative viability (AZD8055 + Vorinostat; first compound 1 µM) | relative viability (AZD8055 + Pemetrexed; first compound 0.01 µM) | relative viability (AZD8055 + Pemetrexed; first compound 0.03162 µM) | relative viability (AZD8055 + Pemetrexed; first compound 0.1 µM) | relative viability (AZD8055 + Pemetrexed; first compound 0.3162 µM) | relative viability (AZD8055 + Pemetrexed; first compound 1 µM) | relative viability (AZD8055 + Dasatinib; first compound 0.01 µM) | relative viability (AZD8055 + Dasatinib; first compound 0.03162 µM) | relative viability (AZD8055 + Dasatinib; first compound 0.1 µM) | relative viability (AZD8055 + Dasatinib; first compound 0.3162 µM) | relative viability (AZD8055 + Dasatinib; first compound 1 µM) | relative viability (AZD8055 + Palbociclib; first compound 0.01 µM) | relative viability (AZD8055 + Palbociclib; first compound 0.03162 µM) | relative viability (AZD8055 + Palbociclib; first compound 0.1 µM) | relative viability (AZD8055 + Palbociclib; first compound 0.3162 µM) | relative viability (AZD8055 + Palbociclib; first compound 1 µM)
1 | NCI-H441 | 0.985 | 0.72 | 0.534 | 0.346 | 0.246 | 0.273 | 0.247 | 0.232 | 0.234 | 0.205 | 0.538 | 0.608 | 0.474 | 0.281 | 0.245 | 0.178 | 0.185 | 0.179 | 0.144 | 0.14
2 | NCI-H460 | 1.02 | 0.629 | 0.498 | 0.0504 | 0.0551 | 0.0514 | 0.0565 | 0.0535 | 0.0755 | 0.0693 | 0.554 | 0.365 | 0.213 | 0.0862 | 0.0669 | 0.154 | 0.108 | 0.0839 | 0.0295 | 0.0277
3 | NCI-H520 | 0.621 | 0.406 | 0.242 | 0.188 | 0.154 | 0.636 | 0.307 | 0.245 | 0.182 | 0.144 | 0.142 | 0.13 | 0.15 | 0.14 | 0.171 | 0.167 | 0.15 | 0.156 | 0.141 | 0.161
4 | NCI-H522 | 0.898 | 0.731 | 0.876 | 0.666 | 0.499 | 0.992 | 0.943 | 0.962 | 0.518 | 0.467 | 0.864 | 0.831 | 0.907 | 0.625 | 0.535 | 1.06 | 0.923 | 0.717 | 0.536 | 0.414
5 | NCI-H647 | 0.81 | 0.416 | 0.308 | 0.152 | 0.114 | 0.207 | 0.155 | 0.133 | 0.166 | 0.122 | 0.179 | 0.136 | 0.132 | 0.0579 | 0.144 | 0.348 | 0.219 | 0.245 | 0.102 | 0.0993
6 | NCI-H650 | 0.496 | 0.352 | 0.478 | 0.231 | 0.146 | 0.981 | 0.691 | 0.843 | 0.371 | 0.299 | 0.469 | 0.393 | 0.36 | 0.292 | 0.231 | 0.371 | 0.307 | 0.273 | 0.196 | 0.165
7 | NCI-H661 | 0.866 | 0.791 | 0.707 | 0.465 | 0.4 | 1.02 | 0.882 | 0.868 | 0.579 | 0.418 | 0.845 | 0.867 | 0.633 | 0.368 | 0.305 | 0.37 | 0.368 | 0.303 | 0.291 | 0.362
8 | NCI-H838 | 0.695 | 0.577 | 0.447 | 0.428 | 0.346 | 0.228 | 0.236 | 0.231 | 0.18 | 0.201 | 0.269 | 0.264 | 0.262 | 0.231 | 0.217 | 0.214 | 0.156 | 0.163 | 0.16 | 0.17
9 | NCI-H1355 | 0.587 | 0.541 | 0.414 | 0.214 | 0.235 | 1.06 | 0.91 | 0.772 | 0.316 | 0.235 | 0.551 | 0.443 | 0.435 | 0.218 | 0.263 | 0.323 | 0.284 | 0.219 | 0.215 | 0.218
10 | NCI-H1395 | 0.683 | 0.448 | 0.621 | 0.422 | 0.461 | 0.767 | 0.547 | 0.735 | 0.385 | 0.356 | 0.405 | 0.376 | 0.37 | 0.31 | 0.292 | 0.604 | 0.526 | 0.547 | 0.44 | 0.45
11 | NCI-H1437 | 0.914 | 0.786 | 0.708 | 0.512 | 0.311 | 0.324 | 0.308 | 0.276 | 0.23 | 0.224 | 0.498 | 0.444 | 0.275 | 0.187 | 0.124 | 0.358 | 0.434 | 0.338 | 0.221 | 0.203
12 | NCI-H1650 | 0.729 | 0.436 | 0.521 | 0.265 | 0.236 | 0.403 | 0.463 | 0.389 | 0.39 | 0.29 | 0.317 | 0.302 | 0.292 | 0.19 | 0.265 | 0.317 | 0.323 | 0.254 | 0.18 | 0.205
13 | NCI-H1651 | 0.59 | 0.526 | 0.552 | 0.411 | 0.351 | 0.645 | 0.585 | 0.477 | 0.388 | 0.367 | 0.455 | 0.368 | 0.307 | 0.226 | 0.253 | 0.507 | 0.472 | 0.478 | 0.298 | 0.253
14 | NCI-H1666 | 0.933 | 1.07 | 0.892 | 0.856 | 0.736 | 0.917 | 0.878 | 0.895 | 0.751 | 0.716 | 0.928 | 0.853 | 0.739 | 0.698 | 0.579 | 0.669 | 0.643 | 0.624 | 0.652 | 0.674
15 | NCI-H1734 | 0.822 | 0.571 | 0.506 | 0.303 | 0.246 | 0.45 | 0.375 | 0.41 | 0.385 | 0.323 | 0.563 | 0.366 | 0.318 | 0.152 | 0.162 | 0.378 | 0.386 | 0.288 | 0.215 | 0.192
16 | NCI-H1755 | 0.64 | 0.613 | 0.57 | 0.423 | 0.366 | 0.462 | 0.423 | 0.384 | 0.424 | 0.461 | 0.414 | 0.32 | 0.262 | 0.263 | 0.249 | 0.42 | 0.44 | 0.388 | 0.368 | 0.359
